According to patent US7375136B2, “pH-dependent NMDA receptor antagonists” (Emory University, priority 2001, dated 2008):
Read-outs that look alike come from different tables or passages of the source.

Key:
Male Sprague-Dawley rats = test: Maximal electroshock seizures, duration of tonic hindlimb extension (THE); assay type: in vivo; conditions: for Anticonvulsive effects: rat maximal electroshock, summary in words; for THE in drug (% control): rat, mean ± sem
Source text: Methods: Male Sprague-Dawley rats weighing less than 150 gm were used for these experiments. Maximal electroshock seizures were produced by delivering 200 ms biphasic square-wave pulses of 200 mA at 60 Hz via corneal electrodes, using a Wahlquist Constant Current Source (Salt Lake City, Utah). A drop of 0.9% lidocaine in saline was applied to each cornea 30 s before stimulus delivery to minimize pain. Automatic timers recorded the durations of tonic hindlimb flexion, tonic hindlimb extension (THE), clonus and flaccidity that sequentially followed stimulus delivery. The duration of THE was used as an index of seizure severity. Animals were stimulated on three consecutive days, referred to as “control”, “test”, and “recovery”. […] On “test” day, each animal received either vehicle or drug at varying intervals prior to stimulation. Reversibility of drug effect on THE was ascertained by response to stimulation administered one day after the “test” session. The values shown in the table are the mean (±sem) THE duration in the test condition, as a percentage of the mean of control and recovery conditions. Four rats were used for each time point.
P<0.001 for difference from vehicle by one-way ANOVA with Dunnett's post hoc test. For all other conditions P>0.05.

NR1-1a/NR2B receptors = NR1-1a/NR2B receptors (Homo sapiens, UniProt Q05586+Q13224); test: Two electrode voltage clamp of Xenopus oocytes expressing NR1-1a and NR2B NMDA receptor subunits; inhibition of glutamate/glycine current at pH 6.9 and 7.6; assay type: cell-based; conditions: for Fold increase in potency between pH 7.6 and 6.9: IC50 at pH 7.6/IC50 at pH 6.9; for IC50: pH 6.9, NR1-1a/NR2B in Xenopus oocytes, read-out: IC50 at pH 6.9
Method: Current recordings were obtained using two electrode voltage clamp of Xenopus oocytes injected with cRNA encoding the NR1-1a and NR2B NMDA receptor subunits. Cells were injected with 5-15 ng of cRNA encoding NR1-1a in combination with a 2-3 fold greater amount of either NR2B cRNA. Injected oocytes were maintained at 17° C. in Barths solution containing penicillin (10 U/ml) and streptomycin (10 μg/ml) for 2-6 days, after which recordings were made at room temperature from oocytes continuously perfused in a standard frog Ringers solution. This solution was composed of (in mM): 90 NaCl, 1.0 KCl, 10 Hepes and 0.5 BaCl2. Recording pipettes were filled with 0.3M KCl. Saturating concentrations of glutamate (20-50 μM) and glycine (20 μM) were used to activate the receptor. Drugs were prepared daily from frozen stock solutions in DMSO. Glutamate/glycine-activated currents were typically elicited from a holding potential of −20 to −40 mV. Current signals were digitized and analyzed using custom acquisition software. To study the effects of pH, oocytes were perfused with Ringer's solution at the desired pH until a stable baseline had been reached before subsequent agonist application.
Oocytes in which the glutamate/glycine current was not stable or in which the baseline holding current drifted were discarded. Inhibition of the glutamate/glycine current by drugs was examined by applying 1-4 different concentrations of the antagonist to each oocyte. […] On average recordings were made from 14 oocytes per condition.

[1] = molecular target: NR2B subunit-containing recombinant NMDA receptors (Homo sapiens, UniProt Q05586+Q13224); conditions: pH 6.8 compared to pH 7.5; cited from earlier work
[2] = 30 mg/kg, 15 min from drug injection to electroshock
[3] = 30 mg/kg, 60 min from drug injection to electroshock
[4] = 30 mg/kg, 30 min from drug injection to electroshock

Sequence of NR1-1a/NR2B receptors (Q13224 27-1484, other chains not shown): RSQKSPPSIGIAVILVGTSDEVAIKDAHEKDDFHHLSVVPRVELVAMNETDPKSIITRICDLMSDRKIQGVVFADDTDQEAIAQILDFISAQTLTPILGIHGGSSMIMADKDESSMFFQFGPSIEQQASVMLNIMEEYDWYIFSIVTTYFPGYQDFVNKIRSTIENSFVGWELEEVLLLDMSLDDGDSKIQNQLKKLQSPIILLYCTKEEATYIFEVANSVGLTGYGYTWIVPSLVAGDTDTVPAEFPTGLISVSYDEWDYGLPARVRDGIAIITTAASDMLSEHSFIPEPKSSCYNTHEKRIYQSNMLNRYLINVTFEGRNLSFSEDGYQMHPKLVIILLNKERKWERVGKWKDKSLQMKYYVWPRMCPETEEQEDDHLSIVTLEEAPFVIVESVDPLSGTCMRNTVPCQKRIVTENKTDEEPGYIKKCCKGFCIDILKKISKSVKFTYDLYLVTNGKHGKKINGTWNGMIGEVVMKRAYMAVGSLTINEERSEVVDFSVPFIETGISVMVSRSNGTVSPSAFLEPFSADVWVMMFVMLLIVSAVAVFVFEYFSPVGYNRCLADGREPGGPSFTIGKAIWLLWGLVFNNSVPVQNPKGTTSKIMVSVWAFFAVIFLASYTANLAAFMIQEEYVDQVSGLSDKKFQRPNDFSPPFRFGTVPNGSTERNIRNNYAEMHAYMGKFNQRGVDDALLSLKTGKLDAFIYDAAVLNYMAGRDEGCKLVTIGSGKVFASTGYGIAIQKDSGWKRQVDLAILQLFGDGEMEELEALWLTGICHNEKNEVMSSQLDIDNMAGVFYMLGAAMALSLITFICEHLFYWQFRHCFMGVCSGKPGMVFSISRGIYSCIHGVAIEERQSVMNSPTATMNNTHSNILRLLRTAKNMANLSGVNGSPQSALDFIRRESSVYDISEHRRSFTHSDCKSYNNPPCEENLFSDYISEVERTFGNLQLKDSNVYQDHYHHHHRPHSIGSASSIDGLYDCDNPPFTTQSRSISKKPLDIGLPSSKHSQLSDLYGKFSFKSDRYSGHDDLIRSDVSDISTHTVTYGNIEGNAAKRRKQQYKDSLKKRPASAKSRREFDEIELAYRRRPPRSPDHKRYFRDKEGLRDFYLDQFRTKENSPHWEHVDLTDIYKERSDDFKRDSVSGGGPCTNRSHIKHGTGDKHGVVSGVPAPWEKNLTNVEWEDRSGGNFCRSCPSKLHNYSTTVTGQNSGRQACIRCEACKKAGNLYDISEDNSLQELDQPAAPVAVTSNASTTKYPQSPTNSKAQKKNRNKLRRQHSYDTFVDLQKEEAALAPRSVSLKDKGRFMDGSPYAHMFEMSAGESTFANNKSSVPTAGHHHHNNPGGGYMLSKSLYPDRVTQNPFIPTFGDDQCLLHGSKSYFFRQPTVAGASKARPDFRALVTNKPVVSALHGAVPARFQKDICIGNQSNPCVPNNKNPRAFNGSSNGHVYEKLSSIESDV
Sequence of NR2B subunit-containing recombinant NMDA receptors (Q13224 27-1484, other chains not shown): as above

Structure (SMILES) | Anticonvulsive effects (Male Sprague-Dawley rats) | THE in drug (% control) (Male Sprague-Dawley rats; [2]) | THE in drug (% control) (Male Sprague-Dawley rats; [3]) | Fold increase in potency between pH 7.6 and 6.9 (NR1-1a/NR2B receptors; Table B) | IC50 (NR1-1a/NR2B receptors; Table B) [µM] | Fold increase in potency between pH 7.6 and 6.9 (NR1-1a/NR2B receptors; Table C) | other results
CN(CCc1ccc(Cl)c(Cl)c1)CC(O)COc1ccc(NS(C)(=O)=O)cc1.Cl (racemic) [Compound 93, (R,S) 1-(4-methanesulfonamidophenoxy)-3-(N-methyl-3,4-dichlorophenylethylamine)-2-propanol hydrochloride, reference compound] | Anticonvulsive effects |  |  |  |  |  | THE in drug (% control) (Male Sprague-Dawley rats; 10 mg/kg, 15 min from drug injection to electroshock): 78.2 ± 4.5 % control; THE in drug (% control) (Male Sprague-Dawley rats; 10 mg/kg, 30 min from drug injection to electroshock): 58.5 ± 11.3 % control; THE in drug (% control) (Male Sprague-Dawley rats; 10 mg/kg, 60 min from drug injection to electroshock): 62.4 ± 3.9 % control; THE in drug (% control) (Male Sprague-Dawley rats; 30 mg/kg, 240 min from drug injection to electroshock): 96.2 ± 1.7 % control
CS(=O)(=O)Nc1ccc(OC[C@@H](O)CNCCc2ccc(Cl)c(Cl)c2)cc1.Cl [93-4 (S), (S)-1-(4-methanesulfonamideophenoxy)-3-(3,4-dichlorophenylethylamine)-2-propanol hydrochloride] | Anticonvulsive effects | 66.6 ± 12.5 | 30.8 ± 12.1 | 3.54 | 0.026 | 3.54 | THE in drug (% control) (Male Sprague-Dawley rats; 3 mg/kg, 15 min from drug injection to electroshock): 91.1 ± 2.7 % control; THE in drug (% control) (Male Sprague-Dawley rats; 3 mg/kg, 60 min from drug injection to electroshock): 109 ± 11.5 % control; Fold increase in potency between pH 7.6 and 6.9 (NR1-1a/NR2B receptors; Table D): 3.54; IC50 (NR1-1a/NR2B receptors; Table D): 0.026 µM
CS(=O)(=O)Nc1ccc(OC[C@@H](O)CN(CCO)CCc2ccc(Cl)c(Cl)c2)cc1 [93-8 (S), (S)-1-(4-methanesulphonamidephenoxy)-e-(N-(2-hydroxyethyl)-3,4-dichlorophenylethylamino)-2-propanol] | Anticonvulsive effects | 91.9 ± 0.4 | 59.3 ± 4.1 |  |  | 11.3 | THE in drug (% control) (Male Sprague-Dawley rats; [4]): 85.7 ± 2.8 % control; Fold increase in potency between pH 7.6 and 6.9 (NR1-1a/NR2B receptors; Table A): 11.3; IC50 (NR1-1a/NR2B receptors; Table A): 0.029 µM
CS(=O)(=O)Nc1ccc(OCC2CN(CCc3ccc(Cl)c(Cl)c3)C(=O)O2)cc1 [93-27 (S), N-(3,4-dichlorophenyl)ethyl-5-(4-methanesulphonamidophenoxy) methyl-oxazolidine-2-one] |  | 97.0 ± 0.6 | 89.7 ± 0.8 | 0.95 | 0.338 | 0.954 | THE in drug (% control) (Male Sprague-Dawley rats; [4]): 95.6 ± 1.3 % control
CS(=O)(=O)Nc1ccc(OC[C@@H](O)CN(CCc2ccc(Cl)c(Cl)c2)Cc2ccc(F)cc2)cc1 [93-33 (S), (S)-1-(4-Methanesulphonamidephenoxy)-3-(N-(4-fluorobenzyl)-3,4-dichlorophenylethylamino)-2-propanol] |  |  |  | 0.810 | 0.52 |  | 
CS(=O)(=O)Nc1ccc(OC[C@@H](O)CN(CCc2ccc(Cl)c(Cl)c2)Cc2cccc(F)c2)cc1 [93-34 (S), (S)-1-(4-Methanesulphonamidephenoxy)-3-(N-(3-fluorobenzyl)-3,4-dichlorophenylethylamino)-2-propanol] |  |  |  | 4.62 | 0.21 |  | 
CS(=O)(=O)Nc1ccc(OC[C@@H](O)CN(CCc2ccc(Cl)c(Cl)c2)Cc2ccccc2F)cc1 [93-35 (S), (S)-1-(4-Methanesulphonamidephenoxy)-3-(N-(2-fluorobenzyl)-3,4-dichlorophenylethylamino)-2-propanol] |  |  |  | 3.60 | 0.048 |  | 
NC(=O)N1c2ccccc2C=Cc2ccccc21 [Carbamazepine, reference compound] |  |  |  |  |  |  | THE in drug (% control) (Male Sprague-Dawley rats; 40 mg/kg, 30 min from drug injection to electroshock): 0.0 ± 0.0 % control
CC(C(O)c1ccc(O)cc1)N1CCC(Cc2ccccc2)CC1 (centres unmarked) [Ifenprodil] |  |  |  |  |  |  | potency for inhibition of NR2B subunit-containing recombinant NMDA receptors as a function of pH [1]: enhanced at pH 6.8 compared to pH 7.5
C[C@@H](CN1CCC(Cc2ccccc2)CC1)[C@@H](O)c1ccc(O)cc1 [Ro256981, reference compound] |  |  |  | 0.444 | 0.018 |  | 
